Columns and labels:
[1] = tested on: "spatial disorientation" syndrome; experiment: effect on a "spatial disorientation" syndrome in the rat (aquatic labyrinth after electric shock); type: in vivo, rat (Wistar AF-Han)
Protocol: This study was carried out using male rats of the Wistar AF-Han EOPS strains weighing about 160 g and about 6 to 7 weeks old.
After being guided through once by the experimenter, the rats are first of all subjected to 4 tests in 2 days in an aquatic labyrinth described by GIURGEA and MOURAVIEFFLESUISSE (J. Pharmacol. PARIS, 1972, 3, 1, 17-30).
On the 3rd day, the rats are subjected to a supramaximal electric shock delivered by a Neurovac controlled by a CRC OC 342 oscillograph; the electric shock has the following characteristics: 100 Hz, 0.5 ms, 1 second, 60 volts.
After passing through the labyrinth 20 minutes after the electric shock, the rats are given their treatment by oesophageal tube. Two tests are carried out 40 and 100 minutes after treatment, i.e. 60 and 120 minutes after the electric shock, and the time taken to pass through the labyrinth by each animal is timed; the number of errors is also noted.
The rats are put on a diet of water for 18 hours after passing through for the 4th time. The compound is administered by intragastric route in a volume of 5 ml/kg.
time taken to leave the aquatic labyrinth;
average number of errors made in an effort to leave the labyrinth;
percentage of "normal" subjects, i.e. rats passing through the labyrinth with only 0-4 errors.

low-pressure hypoxia = experiment: mortality caused by low-pressure hypoxia in the mouse; type: in vivo, mouse (NMRI-Han); design: survival time, average and standard deviation: unit not given here
Protocol: An artificial altitude was created by placing the mouse in a sealed box and progressively reducing the pressure to 190 mm of mercury (equivalent to about 10,000 meters altitude) using a CEM-type pump, so that the desired altitude is obtained in 1 minute 10 seconds on average. A stopwatch is then started and the exact time when the chest movements cease is noted. Any mouse whose survival time is more than twice the average value noted in the corresponding "solvent control" series is regarded as protected.
The ED50 was calculated from the percentage of "protected" mice using the graphical method indicated by LITCHFIELD and WILCOXON (J. Pharm. Exp. Ther., 1949, 96, 99-113).
The compound was administered by intraperitoneal route 20 minutes before the altitude is artifically created; whatever the dose, the volume injected was always equal to 20 ml/kg.
The effects were also examined after administration by oesophageal tube 60 minutes before the test, whilst the volume administered is always 20 ml/kg.
The entire study was carried out on adult male EOPS mice (4 to 5 weeks old) of the NMRI-Han strain, divided into random test groups after being fed only water for 18 hours.

[2] = tested on: cortical electrogenesis disrupted by the presence of a unilateral cerebral oedema; experiment: effect on cortical electrogenesis disrupted by unilateral cerebral oedema in the unanaesthetised rabbit; type: in vivo
Protocol: 48 hours before use, the animal's cranium is exposed and stainless steel electrodes are screwed on so as to contact the dura mater on the frontal and occipital lobes on both sides of the median and transverse sutures. The electrocorticogram is recorded on a REEGA MINI HUIT TR electroencephalograph mounted transversely and longitudinally, whilst a 4th channel serves to record the electrocardiogram. Moreover, a flap of bone 7 to 10 mm in diameter was removed on one side, and this operation was not found, 48 hours later, to have caused any appreciable disruption of the electrical activity of the cortex.
An oedema was then produced by removing the dura mater and arachnoid; it usually takes the form of a hernia of the cortex. The treatment is then given and the electrocorticographic trace is monitored every hour during and after administration of the test products, then 24 and 48 hours later.
The action of the test products is assessed on the basic electrogenesis, particularly on the presence of slow waves and on the signs of cortical reactivity to two exteroceptive stimuli: a receptive stimulus (electrical tone lasting 2 seconds) and a nociceptive stimulation of the nerve endings in the skin by pinching the dorsal skin using KOCHER forceps.
The compounds are administered by either intravenous or intragastric route.

[3] = acute toxicity in the mouse (LD50, SPEARMAN-KARBER method); conditions: in vivo
Protocol: (§1) The results of the study of the acute toxicity were as follows, the tests having been carried out on the mouse and rat, whilst the product was administered intravenously, subcutaneously and by oesophageal tube. The doses studied were administered in a volume of 1 ml/100 g of body weight, whilst each dose was administered to 5 males and 5 females; the LD 50 was investigated using the SPEARMAN-KARBER method.

[4] = in vivo
From the text: 2. the chronic toxicity (rats and dogs),
4. the local and general tolerance,
5. the possible teratogenic effects, […]

[5] = acute toxicity in the rat (LD50, SPEARMAN-KARBER method); conditions: in vivo
Protocol: as §1

[6] = stability in acidic medium; type: physicochemical
[7] = 50 mg/kg group, 20 minutes after electric shock (before treatment)
[8] = 50 mg/kg group, before electric shock (before treatment)
[9] = 50 mg/kg intragastric, 60 minutes after electric shock (40 minutes after treatment)
[10] = 50 mg/kg intragastric, 120 minutes after electric shock (100 minutes after treatment)
[11] = 100 mg/kg group, 20 minutes after electric shock (before treatment)
[12] = 100 mg/kg group, before electric shock (before treatment)
[13] = 100 mg/kg intragastric, 60 minutes after electric shock (40 minutes after treatment)
[14] = 100 mg/kg intragastric, 120 minutes after electric shock (100 minutes after treatment)

## CCC12CCCN3CCC4(C(=Nc5ccccc54)C(O)(C(=O)OC)C1)C32 (single isomer, unassigned) [the compound]
[1]; [7]
  average number of errors: 23.4
  average time taken to leave the aquatic labyrinth: 186 s
  percentage of "normal" subjects (0-4 errors): 0 percentage
[1]; [8]
  average number of errors: 3.4
  average time taken to leave the aquatic labyrinth: 39 s
  percentage of "normal" subjects (0-4 errors): 80 percentage
[1]; [9]
  average number of errors: 15.2
  average time taken to leave the aquatic labyrinth: 96 s
  percentage of "normal" subjects (0-4 errors): 28 percentage
[1]; [10]
  average number of errors: 8.9
  average time taken to leave the aquatic labyrinth: 68 s
  percentage of "normal" subjects (0-4 errors): 52 percentage
[1]; [11]
  average number of errors: 22.6
  average time taken to leave the aquatic labyrinth: 168 s
  percentage of "normal" subjects (0-4 errors): 0 percentage
[1]; [12]
  average number of errors: 3.4
  average time taken to leave the aquatic labyrinth: 37 s
  percentage of "normal" subjects (0-4 errors): 77 percentage
[1]; [13]
  average number of errors: 13.9
  average time taken to leave the aquatic labyrinth: 103 s
  percentage of "normal" subjects (0-4 errors): 17 percentage
[1]; [14]
  average number of errors: 8.9
  average time taken to leave the aquatic labyrinth: 80 s
  percentage of "normal" subjects (0-4 errors): 47 percentage
[1]; oral route, conclusion
  recovery of memory: accelerates the recovery of memory already instilled
low-pressure hypoxia; 2.5 mg/kg i.p., 20 minutes before altitude
  survival time, average and standard deviation: 88.4 ± 7.01
low-pressure hypoxia; 5.0 mg/kg i.p., 20 minutes before altitude
  survival time, average and standard deviation: 108.5 ± 20.22
low-pressure hypoxia; 10.0 mg/kg i.p., 20 minutes before altitude
  survival time, average and standard deviation: 155.7 ± 30.42
low-pressure hypoxia; 15 mg/kg i.p., 20 minutes before altitude
  survival time, average and standard deviation: 179.6 ± 32.07
low-pressure hypoxia; 20 mg/kg i.p., 20 minutes before altitude
  survival time, average and standard deviation: 275.4 ± 39.77
low-pressure hypoxia; 30 mg/kg i.p., 20 minutes before altitude
  survival time, average and standard deviation: 308.5 ± 35.65
low-pressure hypoxia; 50 mg/kg p.o., 60 minutes before test
  survival time, average and standard deviation: 122.6 ± 11.75
low-pressure hypoxia; 100 mg/kg p.o., 60 minutes before test
  survival time, average and standard deviation: 186.8 ± 25.70
low-pressure hypoxia; 150 mg/kg p.o., 60 minutes before test
  survival time, average and standard deviation: 179.7 ± 20.23
low-pressure hypoxia; 200 mg/kg p.o., 60 minutes before test
  survival time, average and standard deviation: 287.0 ± 25.58
low-pressure hypoxia; 250 mg/kg p.o., 60 minutes before test
  survival time, average and standard deviation: 306.5 ± 29.46
low-pressure hypoxia; 300 mg/kg p.o., 60 minutes before test
  survival time, average and standard deviation: 281.6 ± 30.61
low-pressure hypoxia; regardless of the route of administration
  protection from the toxic effects of artificial altitude: makes it possible to protect the mouse from the toxic effects of artificial altitude
[2]; conclusion, unanaesthetised rabbit
  effect on the development of electrogenesis in the cortex disrupted by unilateral cerebral oedema: beneficial effect
[2]; intragastric, 5 mg/kg
  increase of the value of the "R" index: ~30%
[2]; intragastric, 10 mg/kg, during the 8 hours following ingestion
  value of the "R" index: a clear improvement in the value of the "R" index
[2]; intravenous, 0.5 mg, 1 mg and 2 mg/kg
  activity with regard to oedema symptoms (spontaneous electrogenesis and duration of alert reactions): has a therapeutic acitivity with regard to oedema symptoms
[3]; iv
  LD50 at 72 h: 86 mg/kg
[3]; po
  LD50 at 72 h: 860 mg/kg
[3]; sc
  LD50 at 72 h: 176 mg/kg
[4]
  tolerance: tolerated well both orally and by parenteral or intramuscular route, without causing local or general reactions
[5]; iv
  LD50 at 72 h: 63.4 mg/kg
[5]; po
  LD50 at 72 h: 777 mg/kg
[5]; sc
  LD50 at 72 h: 126 mg/kg
[6]
  stability in an acidic medium: unstable in an acidic medium

Source: patent publication US4152519A, “16-Hydroxy aspidospermidines and a process for their production” (Parcor, priority 1976, dated 1979)
